Here are results for 32 compounds from patent US20110224208A1, “NOVEL INHIBITORS OF FLAVIVIRUS REPLICATION” (KATHOLIEKE UNIVERSITEIT LEUVEN, K.U. LEUVEN R&D, priority 2008, published 2011).

Usually IC50 stands for the concentration that inhibits the measured activity by half. A lower IC50 goes with greater potency in that assay.

≈ marks a conversion by molar mass, not a printed value.

This test concerns HCV replicon I389luc-ubi-neo/NS3-3'/5.1. Put plainly: Anti-HCV replicon assay (luciferase activity) in Huh-5-2 cells. Conditions: Hepatitis C virus, Huh-5-2, 72 h, concentration required to inhibit luciferase activity in the replicon system by 50%. It counts as cell-based, Hepatitis C virus. The procedure:
Cells were seeded at a density of 7000 cells per well in 96 well View Plate™ (Packard) in medium containing the same components as described above, except for G418. Cells were allowed to adhere and proliferate for 24 hr. At that time, culture medium was removed and serial dilutions of the test compounds were added in culture medium lacking G418. Interferon alfa 2a (500 IU) was included as a positive control. Plates were further incubated at 37° C. and 5% CO2 for 72 hours. Replication of the HCV replicon in Huh-5 cells results in luciferase activity in the cells. Luciferase activity is measured by adding 50 μl of 1×Glo-lysis buffer (Promega) for 15 minutes followed by 50 ul of the Steady-Glo Luciferase assay reagent (Promega). Luciferase activity is measured with a luminometer and the signal in each individual well is expressed as a percentage of the untreated cultures. […] Instead the density of the culture is measured by means of the MTS method (Promega).
(A replicon is a self-replicating genome or part of one, used to study replication in cells.)
On to `COCCN1C(=O)c2cc([N+](=O)[O-])ccc2C(C(=O)Nc2cccc(OC)c2)C1c1cccs1` (centres unmarked) [C3, 2-(2-methoxyethyl)-N-(3-methoxyphenyl)-7-nitro-1-oxo-3-(thiophen-2-yl)-1,2,3,4-tetrahydroisoquinoline-4-carboxamide], for which the IC50 is 40.9 mg/L (≈ 84.9 µM).

`COc1cccc(NC(=O)C2c3ccccc3C(=O)N(Cc3ccco3)C2c2cccs2)c1` (centres unmarked) [C4, 2-(Furan-2-ylmethyl)-N-(3-methoxyphenyl)-1-oxo-3-(thiophen-2-yl)-1,2,3,4-tetrahydroisoquinoline-4-carboxamide] showed a concentration for half-maximal inhibition (IC50) of 41.5 mg/L (≈ 90.6 µM).

In turn, `COCCN1C(=O)c2ccccc2C(C(=O)Nc2cccc(OC)c2)C1c1c(F)cccc1F` (centres unmarked) [C10, 3-(2,6-Difluorophenyl)-2-(2-methoxyethyl)-N-(3-methoxyphenyl)-1-oxo-1,2,3,4-tetrahydroisoquinoline-4-carboxamide] registered an IC50 of 32.1 mg/L (≈ 68.9 µM).

The compound `COCCN1C(=O)c2ccccc2C(C(=O)Nc2cccc(OC)c2)C1c1ccc(C)s1` (centres unmarked) [C12, 2-(2-Methoxyethyl)-N-(3-methoxyphenyl)-3-(5-methylthiophen-2-yl)-1-oxo-1,2,3,4-tetrahydroisoquinoline-4-carboxamide] returned an IC50 of 1.2 mg/L (≈ 2.66 µM).

Take `COc1cccc(NC(=O)C2c3ccccc3C(=O)N(CCN(C)C)C2c2cccs2)c1` (centres unmarked) [C15, 2-(2-(Dimethylamino)ethyl)-N-(3-methoxyphenyl)-1-oxo-3-(thiophen-2-yl)-1,2,3,4-tetrahydroisoquinoline-4-carboxamide]: the IC50 is 11.8 mg/L (≈ 26.3 µM).

The compound `CCCCN1C(=O)c2ccccc2C(C(=O)Nc2cccc(OC)c2)C1c1cccs1` (centres unmarked) [C16, 2-Butyl-N-(3-methoxyphenyl)-1-oxo-3-(thiophen-2-yl)-1,2,3,4-tetrahydroisoquinoline-4-carboxamide] displayed an IC50 of 1.1 mg/L (≈ 2.53 µM).

`COc1cccc(NC(=O)C2c3ccccc3C(=O)N(CC3CCCCC3)C2c2cccs2)c1` (centres unmarked) [C22, 2-(Cyclohexylmethyl)-N-(3-methoxyphenyl)-1-oxo-3-(thiophen-2-yl)-1,2,3,4-tetrahydroisoquinoline-4-carboxamide]: the IC50 came out at 4.09 mg/L (≈ 8.62 µM).

Take `COCCN1C(=O)c2ccccc2C(C(=O)Nc2cccc(OC)c2)C1c1cc2ccccc2s1` (centres unmarked) [C27, 3-(Benzo[b]thiophen-2-yl)-2-(2-methoxyethyl)-N-(3-methoxyphenyl)-1-oxo-1,2,3,4-tetrahydroisoquinoline-4-carboxamide]: the midpoint of inhibition, the IC50, lay at 17.4 mg/L (≈ 35.8 µM).

`COCCN1C(=O)c2ccccc2C(C(=O)Nc2cccc(OC)c2)C1c1ccccc1` (centres unmarked) [C28, 2-(2-Methoxyethyl)-N-(3-methoxyphenyl)-1-oxo-3-phenyl-1,2,3,4-tetrahydroisoquinoline-4-carboxamide] returned an IC50 of 38.8 mg/L (≈ 90 µM).

With `COCCN1C(=O)c2ccccc2C(C(=O)NCCOc2ccccc2)C1c1cccs1` (centres unmarked) [C34, 2-(2-Methoxyethyl)-1-oxo-N-(2-phenoxyethyl)-3-(thiophen-2-yl)-1,2,3,4-tetrahydroisoquinoline-4-carboxamide], half-maximal inhibition (IC50) required 16.5 mg/L (≈ 36.7 µM).

`COCCN1C(=O)c2ccccc2C(C(=O)O)C1c1cccs1` (centres unmarked) [C36, 2-(2-methoxyethyl)-1-oxo-3-(thiophen-2-yl)-1,2,3,4-tetrahydroisoquinoline-4-carboxylic acid] returned an IC50 of 47.1 mg/L (≈ 142 µM).

As to `COCCn1c(-c2ccco2)c(C(=O)Nc2cccc(OC)c2)c2ccccc2c1=O` [C38, 3-(furan-2-yl)-2-(2-methoxyethyl)-N-(3-methoxyphenyl)-1-oxo-1,2-dihydroisoquinoline-4-carboxamide], 41.4 mg/L (≈ 98.9 µM) corresponded to half-maximal inhibition (IC50).

`COCCN1C(=O)c2ccc(C)cc2C(C(=O)Nc2cccc(OC)c2)C1c1cccs1` (centres unmarked) [C40, 2-(2-Methoxyethyl)-N-(3-methoxyphenyl)-6-methyl-1-oxo-3-(thiophen-2-yl)-1,2,3,4-tetrahydroisoquinoline-4-carboxamide] returned an IC50 of 7.76 mg/L (≈ 17.2 µM).

`COCCN1C(=O)c2c(C)cccc2C(C(=O)Nc2cccc(OC)c2)C1c1cccs1` (centres unmarked) [C42, 2-(2-Methoxyethyl)-N-(3-methoxyphenyl)-8-methyl-1-oxo-3-(thiophen-2-yl)-1,2,3,4-tetrahydroisoquinoline-4-carboxamide] showed a half-inhibitory concentration (IC50) of 0.5 mg/L (≈ 1.11 µM).

In turn, `COCCN1C(=O)c2cc(Cl)ccc2C(C(=O)Nc2cccc(OC)c2)C1c1cccs1` (centres unmarked) [C43, 7-Chloro-2-(2-methoxyethyl)-N-(3-methoxyphenyl)-1-oxo-3-(thiophen-2-yl)-1,2,3,4-tetrahydroisoquinoline-4-carboxamide] registered an IC50 of 0.3 mg/L (≈ 0.637 µM).

For `COCCN1C(=O)c2ccc(Cl)cc2C(C(=O)Nc2cccc(OC)c2)C1c1cccs1` (centres unmarked) [C55, 6-chloro-2-(2-methoxyethyl)-N-(3-methoxyphenyl)-1-oxo-3-(thiophen-2-yl)-1,2,3,4-tetrahydroisoquinoline-4-carboxamide], the IC50 is 43 mg/L (≈ 91.3 µM).

Compound `COCCN1C(=O)c2cc(I)ccc2C(C(=O)Nc2cccc(OC)c2)C1c1cccs1` (centres unmarked) [C56, 7-Iodo-2-(2-methoxyethyl)-N-(3-methoxyphenyl)-1-oxo-3-(thiophen-2-yl)-1,2,3,4-tetrahydroisoquinoline-4-carboxamide] yielded an IC50 of 0.98 mg/L (≈ 1.74 µM).

Compound `CCC1C(C(=O)Nc2cccc(OC)c2)c2ccccc2C(=O)N1CCOC` (centres unmarked) [C58, 3-Ethyl-2-(2-methoxyethyl)-N-(3-methoxyphenyl)-1-oxo-1,2,3,4-tetrahydroisoquinoline-4-carboxamide] gave an IC50 of 1.81 mg/L (≈ 4.73 µM).

For the compound `COCCN1C(=O)c2ccccc2C(C(=O)Nc2cccc(Cl)c2)C1c1cccs1` (centres unmarked) [C60, N-(3-chlorophenyl)-2-(2-methoxyethyl)-1-oxo-3-(thiophen-2-yl)-1,2,3,4-tetrahydroisoquinoline-4-carboxamide], the IC50 turned out to be 0.98 mg/L (≈ 2.22 µM).

Take `COCCN1C(=O)c2cccc(F)c2C(C(=O)Nc2cccc(OC)c2)C1c1cccs1` (centres unmarked) [C61, 5-Fluoro-2-(2-methoxyethyl)-N-(3-methoxyphenyl)-1-oxo-3-(thiophen-2-yl)-1,2,3,4-tetrahydroisoquinoline-4-carboxamide]: the IC50 stood at 0.22 mg/L (≈ 0.484 µM).

For `COc1cccc(NC(=O)C2c3ccccc3C(=O)N(CCSC)C2c2cccs2)c1` (centres unmarked) [C63, N-(3-methoxyphenyl)-2-(2-(methylthio)ethyl)-1-oxo-3-(thiophen-2-yl)-1,2,3,4-tetrahydroisoquinoline-4-carboxamide], the 50% inhibitory concentration (IC50) stood at 3.21 mg/L (≈ 7.09 µM).

For the compound `CCN1CCCC1CN1C(=O)c2ccccc2C(C(=O)Nc2cccc(OC)c2)C1c1cccs1` (centres unmarked) [C67, 2-((1-ethylpyrrolidin-2-yl)methyl)-N-(3-methoxyphenyl)-1-oxo-3-(thiophen-2-yl)-1,2,3,4-tetrahydroisoquinoline-4-carboxamide], half-maximal inhibition (IC50) was put at 10.4 mg/L (≈ 21.3 µM).

`COCCN1C(=O)c2ccccc2C(C(=O)Nc2cccc(OC)c2)C1C` (centres unmarked) [C69, 2-(2-methoxyethyl)-N-(3-methoxyphenyl)-3-methyl-1-oxo-1,2,3,4-tetrahydroisoquinoline-4-carboxamide] displayed an IC50 of 8.7 mg/L (≈ 23.6 µM).

`CCN1CCC[C@H]1CN1C(=O)c2ccccc2C(C(=O)Nc2cccc(OC)c2)C1c1cccs1` (stereo partly drawn) [C74, 2-(((S)-1-ethylpyrrolidin-2-yl)methyl)-N-(3-methoxyphenyl)-1-oxo-3-(thiophen-2-yl)-1,2,3,4-tetrahydroisoquinoline-4-carboxamide] had an IC50 of 36 mg/L (≈ 73.4 µM).

`COCCN1C(=O)c2cc(OC)c(OC)cc2C(C(=O)Nc2cccc(OC)c2)C1c1cccs1` (centres unmarked) [C75, 6,7-dimethoxy-2-(2-methoxyethyl)-N-(3-methoxyphenyl)-1-oxo-3-(thiophen-2-yl)-1,2,3,4-tetrahydroisoquinoline-4-carboxamide] gave an IC50 of 43.1 mg/L (≈ 86.9 µM).

For `COCCN1C(=O)c2ccccc2C(COCc2ccccc2)C1c1cccs1` (centres unmarked) [C76, 4-(benzyloxymethyl)-2-(2-methoxyethyl)-3-(thiophen-2-yl)-3,4-dihydroisoquinolin-1(2H)-one], the midpoint of inhibition, the IC50, lay at 22 mg/L (≈ 54.1 µM).

Turning to `COCCN1C(=O)c2ccc(F)cc2C(C(=O)Nc2cccc(OC)c2)C1c1cccs1` (centres unmarked) [C77, 6-fluoro-2-(2-methoxyethyl)-N-(3-methoxyphenyl)-1-oxo-3-(thiophen-2-yl)-1,2,3,4-tetrahydroisoquinoline-4-carboxamide], the IC50 was determined as 11.2 mg/L (≈ 24.7 µM).

Consider `COCCN1C(=O)c2ccccc2C(C(=O)Nc2ccccc2-c2ccccc2)C1c1cccs1` (centres unmarked) [C84, N-(biphenyl-2-yl)-2-(2-methoxyethyl)-1-oxo-3-(thiophen-2-yl)-1,2,3,4-tetrahydroisoquinoline-4-carboxamide], for which the IC50 was 12 mg/L (≈ 24.9 µM).

`COCCN1C(=O)c2ccccc2C(C(=O)Nc2cccc(C)c2)C1c1cccs1` (centres unmarked) [C85, 2-(2-methoxyethyl)-1-oxo-3-(thiophen-2-yl)-N-m-tolyl-1,2,3,4-tetrahydroisoquinoline-4-carboxamide] had an IC50 of 0.18 mg/L (≈ 0.428 µM).

Turning to `COCCN1C(=O)c2ccccc2C(C(=O)Nc2ccc(Cl)c(Cl)c2)C1c1cccs1` (centres unmarked) [C87, N-(3,4-dichlorophenyl)-2-(2-methoxyethyl)-1-oxo-3-(thiophen-2-yl)-1,2,3,4-tetrahydroisoquinoline-4-carboxamide], the midpoint of inhibition, the IC50, lay at 0.15 mg/L (≈ 0.316 µM).

On to `COCCN1C(=O)c2c(F)ccc(F)c2C(C(=O)Nc2cccc(OC)c2)C1c1cccs1` (centres unmarked) [C91, 5,8-difluoro-2-(2-methoxyethyl)-N-(3-methoxyphenyl)-1-oxo-3-(thiophen-2-yl)-1,2,3,4-tetrahydroisoquinoline-4-carboxamide], for which half-maximal inhibition (IC50) required 0.32 mg/L (≈ 0.677 µM).

In the case of `COCCN1C(=O)c2cc(C(F)(F)F)ccc2C(C(=O)Nc2cccc(OC)c2)C1c1cccs1` (centres unmarked) [C92, 2-(2-methoxyethyl)-N-(3-methoxyphenyl)-1-oxo-3-(thiophen-2-yl)-7-(trifluoromethyl)-1,2,3,4-tetrahydroisoquinoline-4-carboxamide], the IC50 was 7.04 mg/L (≈ 14 µM).
